Data on 79 compounds can be found in the METLIN SMRT retention time set (Domingo-Almenara et al. 2019).

The data set can be described thus: gradient 5% acetonitrile 3 min, to 50% in 2 min, to 85% in 15 min, held 3 min, 100 µL/min. The following applies: column: Zorbax Extend-C18 2.1 x 50 mm; eluents: water / acetonitrile, 0.1% formic acid. The essentials:
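Using water and acetonitrile that each contained 0.1% formic acid, mixtures of ~100 pure standards were separated at 100 μL/min on a Zorbax Extend-C18 column (2.1 × 50 mm, 1.8 μm). The HPLC fed a quadrupole time-of-flight mass spectrometer working in positive and negative ionization mode, with dead and dwell volumes of 40 μL and 900 μL. Data were acquired over 3 months. Retention time was read from computationally picked adduct peaks after manual inspection of each.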
In the case of `O=C(N[C@H]1C[C@@H]2C[C@H]1N(S(=O)(=O)c1cc(F)cc(F)c1)C2)c1cccs1`, the RP-LC retention time was 720 s.

`CCOC(=O)N1CCc2c(sc(NC(=O)c3cc(C)on3)c2C(=O)OC)C1` yielded an RP-LC retention time of 949 s.

As to `CCn1cnc(S(=O)(=O)N2CCCC(C(=O)Nc3ccc(-c4nc5ccccc5[nH]4)cc3)C2)c1` (centres undefined), the RP-LC retention time was 633 s.

Turning to `CC(=O)Nc1ccc(-n2cnc(C(=O)NCc3ccccc3)c2)nc1`, the RP-LC retention time amounted to 663 s.

In turn, `CCN(CC)CCNC(=S)Nc1ccc2nc(N3CCN(CC)CC3)cc(C)c2c1` returned an RP-LC retention time of 493 s.

On to `CC(C)CCn1c(CCCC(=O)Nc2ccncc2)nc2cccnc21`, for which the RP-LC retention time amounted to 601 s.

`CCOC(=O)c1ccc(NC(=O)C2(c3cccs3)CCOCC2)cc1`: the RP-LC retention time amounted to 956 s.

Consider `COc1ccc(C(=O)N2CCC3(CC2)NC(=O)c2ccc(Cl)cc2N3)cc1OC`, for which the RP-LC retention time stood at 692 s.

Consider `O=C(C1CCN(c2ncccc2-c2nc(-c3cccc(F)c3)no2)CC1)N1CCC2(CC1)OCCO2`, for which the RP-LC retention time is 1010 s.

Compound `Cc1ccc(S(=O)(=O)N2C[C@@H]3C[C@H](NC(=O)c4cccs4)[C@H]2C3)cc1Cl` had an RP-LC retention time of 992 s.

For the compound `COc1ccc(-c2ncc3c(n2)CCN(S(=O)(=O)c2ccc(C)c(Cl)c2)C3)cc1`, the RP-LC retention time is 1180 s.

For `Cc1nc(-c2cnccn2)n(CC(=O)Nc2cccc(C#N)c2)c(=O)c1C`, the RP-LC retention time was determined as 711 s.

`Fc1ccccc1CN1CCc2nc(N3CCN(c4ccccc4F)CC3)ncc2C1` gave an RP-LC retention time of 771 s.

Regarding `O=C(CCc1conc1-c1ccccc1)N1CCC(N2CCCCC2)CC1`, the RP-LC retention time was 616 s.

In the case of `CCc1cccc(NC(=O)C2CCN(S(=O)(=O)c3cn(C)cn3)CC2)c1`, the RP-LC retention time was 732 s.

In turn, `O=C(NCCCN1CCOCC1)c1cc2n(n1)CCCN(Cc1ccccc1)C2=O` yielded an RP-LC retention time of 594 s.

The compound `CC1Oc2ccc(-c3csc(NC(=O)c4ccc(Cl)cc4)n3)cc2N(C)C1=O` (centres undefined) displayed an RP-LC retention time of 1040 s.

`O=S(=O)(Cc1ccc(Cl)cc1)c1nc2ccccc2nc1N1CCOCC1`: the RP-LC retention time stood at 756 s.

As to `Cc1cnc(C2CCC2)n1CC1CCN(C(=O)NC2CCCCC2)CC1`, the RP-LC retention time was determined as 657 s.

`Cc1ccc(N2CCC(NC(=O)c3cccc(F)c3)C2=O)cc1C` (centres undefined): the RP-LC retention time is 891 s.

In the case of `COc1ccccc1-c1nc(C2CCN(C(=O)c3n[nH]c4c3CCCC4)CC2)no1`, the RP-LC retention time came to 759 s.

For `COc1cccc(CNC(=O)c2cn(-c3cc(N4CCOCC4)ncn3)cn2)c1`, the RP-LC retention time is 752 s.

`Cc1ccc(CC(=O)NC2CCN(c3cc(C)cc(C)c3)C2=O)cc1` (centres undefined): the RP-LC retention time is 893 s.

Compound `CC(C)CN1CCN(S(=O)(=O)c2ccc(-c3nnc(C4CCC4)o3)o2)CC1` returned an RP-LC retention time of 610 s.

The compound `O=C(NCc1n[nH]c(=O)c2ccccc12)C(=O)N1CCCCC1` showed an RP-LC retention time of 603 s.

`O=C(NCCC1CCN(C(=O)Nc2cc(F)cc(F)c2)CC1)c1ccco1` came in with an RP-LC retention time of 798 s.

In the case of `Cc1ccc(Cn2nc(C(=O)NCc3ccco3)ccc2=O)cc1`, the RP-LC retention time is 788 s.

On to `O=C(Nc1nc(-c2ccc(Br)s2)cs1)c1ccc([N+](=O)[O-])s1`, for which the RP-LC retention time was 1120 s.

`Cc1cc2nc(CSc3nnc(-c4cccc(Cl)c4)o3)cc(=O)n2o1` gave an RP-LC retention time of 792 s.

`COc1ccccc1NC(=O)Nc1c(C)nc2ccc(C)cn2c1=O` gave an RP-LC retention time of 616 s.

In the case of `O=c1n(Cc2ccc(F)cc2)nc2ccc(S(=O)(=O)N3CCCCC3)cn12`, the RP-LC retention time worked out at 923 s.

Compound `COc1ccccc1C(=O)NC1(C(F)(F)F)C(=O)N(CC(C)C)C2=C1C(=O)CC(C)(C)C2` (centres undefined) showed an RP-LC retention time of 1070 s.

In the case of `Cn1ncc(NC(=O)c2cccc(Cl)c2)c(N2CCOCC2)c1=O`, the RP-LC retention time is 777 s.

`O=C1CCN(C(=O)c2ccsc2)CCCCCCN1` showed an RP-LC retention time of 652 s.

In the case of `O=C(Nc1ccc2c(c1)OCO2)N1CCN(c2ccc3nnc(C4CC4)n3n2)CC1`, the RP-LC retention time amounted to 613 s.

Compound `O=C(c1cccc(F)c1)N1CCCC1c1nc(-c2ccccc2)no1` (centres undefined) showed an RP-LC retention time of 946 s.

On to `COCC(=O)N1CCC2(CC1)Nc1ccc(C)c(C)c1-n1cccc12`, for which the RP-LC retention time was 823 s.

For `CC(C)Cn1cc(CCNS(=O)(=O)c2cc(Cl)ccc2Cl)c2cccnc21`, the RP-LC retention time was determined as 1040 s.

`CC1=C(c2ccccc2)S(=O)(=O)N=C1N1CCCN(C(=O)NC(C)C)CC1` gave an RP-LC retention time of 714 s.

The compound `Cc1ccc(NC(=O)C2CCCN(S(=O)(=O)c3cn(C(C)C)cn3)C2)c(Br)c1` (centres undefined) gave an RP-LC retention time of 850 s.

`O=C(CSc1ccc(F)cc1)Nc1ccc2c(c1)N(C(=O)c1ccccc1)CCC2` returned an RP-LC retention time of 874 s.

Turning to `CCCN1C(=O)Cc2cc(C(=O)N3CCN(c4ccc(OC)cc4)CC3)ccc21`, the RP-LC retention time came to 748 s.

Compound `O=C(CCC(=O)OCc1ccc(Br)cc1)Nc1nc(-c2ccccc2)cs1` had an RP-LC retention time of 1130 s.

`COc1cccc(S(=O)(=O)NCc2cccnc2-c2cccc(C)c2)c1`: the RP-LC retention time was found to be 718 s.

For the compound `O=C(O)Cc1sc(Nc2ccc(Br)cc2)nc1-c1ccccc1`, the RP-LC retention time was 1020 s.

With `CCc1cc(C(=O)Nc2ccc(C)c(C)c2)nc2ccnn12`, the RP-LC retention time worked out at 1150 s.

Regarding `COc1cccc(-c2nc(C3CCN(C(=O)c4n[nH]c5c4CCCC5)CC3)no2)c1`, the RP-LC retention time stood at 847 s.

For the compound `COc1cc(OC)cc(C(=O)NCC(O)Cc2ccccc2)c1` (centres undefined), the RP-LC retention time was determined as 706 s.

`COc1ccc(-c2noc(CS(=O)(=O)c3ccc(Cl)cc3)n2)cc1OC` yielded an RP-LC retention time of 1030 s.

Turning to `O=c1c2cc(-c3ccccc3)nn2ccn1Cc1noc(CN2CCOCC2)n1`, the RP-LC retention time amounted to 681 s.

Turning to `CCCc1nc2cccnc2n1C1CCN(C(=O)Nc2cccc(OC)c2)C1` (centres undefined), the RP-LC retention time came to 617 s.

`Cc1c(C(=O)N2CCN(C(=O)c3ccc(Br)o3)CC2)[nH]c2ccccc12` yielded an RP-LC retention time of 839 s.

Regarding `COCCCCC(=NOCCN)c1ccc(C(F)(F)F)cc1`, the RP-LC retention time came out at 734 s.

Turning to `COC(=O)c1c(C)[nH]c(C(=O)N2CCC(CC(=O)NCc3ccc(C)cc3)CC2)c1C`, the RP-LC retention time worked out at 762 s.

`O=c1c2cc(-c3ccc4c(c3)OCO4)nn2ccn1Cc1ccc(F)cc1`: the RP-LC retention time was 986 s.

For `CSc1ccc(CC(=O)Nc2nnc(-c3cc(C)n(C)n3)o2)cc1`, the RP-LC retention time worked out at 669 s.

For `Cn1cc(C2=CCN(C(=O)NC3CCCC3)CC2)c2cccnc21`, the RP-LC retention time came out at 754 s.

Regarding `CC1CCN(C(=O)c2cc3c(s2)CCC(C(=O)N2CCCC2)C3)CC1` (centres undefined), the RP-LC retention time amounted to 849 s.

In turn, `COC(=O)c1cccc(Nc2c(-c3ccc(F)cc3)nc3cnc(Br)cn23)c1` displayed an RP-LC retention time of 980 s.

Turning to `Cc1ccc(C)c(-c2coc(-c3ccc(NC(=O)NCc4ccccc4)cc3)n2)c1`, the RP-LC retention time was found to be 1220 s.

The compound `CC(C)c1noc(-c2ccnc(-n3cnc(C(=O)NC4CCCCCC4)c3)c2)n1` returned an RP-LC retention time of 771 s.

Compound `O=C(NCCCN1CCOCC1)c1ccc(-c2cnc(NC3CCCCC3)nc2)cc1` yielded an RP-LC retention time of 655 s.

The compound `CNC(=O)C1CCCN(c2nc3ncn(CC(=O)Nc4cccc(Cl)c4)c(=O)c3s2)C1` (centres undefined) returned an RP-LC retention time of 672 s.

Take `Cc1ccccc1Nc1c(-c2ccc(Cl)cc2)nc2cccc(C)n12`: the RP-LC retention time was found to be 804 s.

For the compound `Cc1ccc(NC(=O)Cn2nc3n(c2=O)CCCC3)cc1`, the RP-LC retention time was determined as 640 s.

For `CCc1noc([C@@H]2CC(F)(F)CN2C(=O)CCn2ccnc2)n1`, the RP-LC retention time worked out at 590 s.

The compound `CCC(=O)Nc1ccc(CCc2nc3ccc(C(=O)NCc4ccc5c(c4)OCO5)cc3[nH]2)cc1` registered an RP-LC retention time of 644 s.

Compound `Cc1nn2c(CNS(=O)(=O)c3ccc(F)cc3)c(-c3ccccc3)nc2s1` came in with an RP-LC retention time of 859 s.

`CCc1ccc(NC(=O)N2CC(c3nc(C)no3)C3(CCOCC3)C2)cc1` (centres undefined): the RP-LC retention time came to 770 s.

Compound `COc1cccc2cc(-c3ccc(OCC(=O)N4CCC(C(N)=O)CC4)cc3)c(=O)oc12` had an RP-LC retention time of 672 s.

With `O=C(NC1CCN(c2cc(-c3ccc(F)cc3)[nH]n2)C1)c1cccs1` (centres undefined), the RP-LC retention time came out at 699 s.

`CCCN(C(=O)C1CCC(C)CC1)c1nc(-c2ccccc2)cs1` (centres undefined) showed an RP-LC retention time of 748 s.

The compound `Cn1nc(-c2nnc(-c3ccc(F)cc3)o2)c2c1CCN(S(=O)(=O)c1cccc(Cl)c1)C2` had an RP-LC retention time of 987 s.

Take `O=C(CN1C(=O)C(C(=O)N2CCCC2)Sc2ccccc21)NCc1ccccc1Cl` (centres undefined): the RP-LC retention time was 928 s.

`Cc1cccc(N2CCN(C(=O)C3CCCN(c4nc5ccccc5n5cccc45)C3)CC2)c1C` (centres undefined) returned an RP-LC retention time of 977 s.

For `Fc1ccc(-c2nc3cnccn3c2Nc2ccc3c(c2)OCCO3)cc1`, the RP-LC retention time amounted to 818 s.

Consider `CC1CCN(S(=O)(=O)c2nn(Cc3ccccn3)cc2C(=O)O)CC1`, for which the RP-LC retention time worked out at 721 s.

`CCc1ccc(S(=O)(=O)c2cnc(N3CCc4ccccc4C3)nc2N)cc1` registered an RP-LC retention time of 1170 s.

`Cc1cc(C)c(S(=O)(=O)N2CCC(c3noc(-c4ccccc4)n3)CC2)c(C)c1`: the RP-LC retention time was 1350 s.
